Earlier results as cited in patent publication US20060100214A1, “Fast dissolving and taste masked oral dosage form comprising sildenafil” (priority 2002, published 2006).

Row | Compound | maximal solubility (at pH2.0) | water solubility (as said in US 20020002172A1)
1 | CCCc1nn(C)c2c(=O)[nH]c(-c3cc(S(=O)(=O)N4CCN(C)CC4)ccc3OCC)nc12.O=C(O)CC(O)(CC(=O)O)C(=O)O [Sildenafil citrate, 1-[[3-(6,7-dihydro-1-methyl-7-oxo-3-propyl-1H-pyrazolo[4,3-d]pyrimidin-5-yl)-4-ethoxyphenyl]sulfonyl]-4-methylpiperazine citrate] | approximately 24 mg/ml | 
2 | CCCc1nn(C)c2c(=O)[nH]c(-c3cc(S(=O)(=O)N4CCN(C)CC4)ccc3OCC)nc12 [sildenafil free base, 1-[[3-(6,7-dihydro-1-methyl-7-oxo-3-propyl-1H-pyrazolo[4,3-d]pyrimidin-5-yl)-4-ethoxyphenyl]sulfonyl]-4-methylpiperazine] |  | very low water solubility
